Experimental data as given in US20240076284A1, “NEW COMPOUNDS AND METHODS” (BENEVOLENTAI BIO LIMITED, priority 2020, published 2024).

What was measured:
Rat microsomal stability = assay type: in vitro ADME; conditions: rat microsomes, second value of cell; NADPH, 37° C., up to 40 min
Procedure: (§1) This assay measures the metabolic stability of a given compound and predicts intrinsic liver clearance for various species. A quench plate is initially prepared which contains 400 μL MeCN and 25 ng/mL of internal standard. An aliquot of microsomes is defrosted and subsequently diluted with buffer. A solution of NADPH is made up fresh just before initialising the assay. 445 μL of microsome solution is added to the desired compound (5 μL in 10 μM DMSO) and the resulting solution mixed. The reaction is initiated by the addition of 50 μL of NADPH, a T0 sample is removed before the addition and quenched. The sample plate is kept at a constant 37° C. during the incubation. At pre-determined timepoints (2.5, 5, 10, 20 and 40 min) the incubation is mixed and 22.5 μL samples are transferred to quench plates. After completion of the time course, the quench plates are sealed and shaken for a minimum of 5 min, before centrifugation at 4000 rpm for 5 min. The supernatant is then subsequently transferred to a fresh plate and diluted 1:3 with MeOH/H2O. The plates are then heat sealed and analysed by a Water Acquity UPLC and a Waters TQ-S mass spectrometer. Waters MassLynx software is used for analysis using an MRM transition that has been previously generated from prior optimisation. After acquiring the data on the system the chromatograms are processed and checked using TargetLynx XS software and the raw data output is copied into a microsomal stability workbook. The workbook automatically populates and derives the CLint, t1/2 and scales the CLint values to generate Eh and predicted CL values. The analyst has the final workbook quality checked before the experiment is signed off.

[1] = target: T1, Ba/F3 cells expressing BCR-ABL (Homo sapiens, UniProt P00519); test: Ba/F3 CellTiter-Glo Assay; assay type: cell-based; conditions: 48 h incubation, CellTiter-Glo luminescence
T1 construct: BCR (fusion partner, N-terminal portion of BCR); host or cells: Ba/F3 (murine pro-B cells); the other entry of the earlier key: BCR (P11274, Breakpoint cluster region protein)
T1 sequence (P00519 229-512 limits assumed): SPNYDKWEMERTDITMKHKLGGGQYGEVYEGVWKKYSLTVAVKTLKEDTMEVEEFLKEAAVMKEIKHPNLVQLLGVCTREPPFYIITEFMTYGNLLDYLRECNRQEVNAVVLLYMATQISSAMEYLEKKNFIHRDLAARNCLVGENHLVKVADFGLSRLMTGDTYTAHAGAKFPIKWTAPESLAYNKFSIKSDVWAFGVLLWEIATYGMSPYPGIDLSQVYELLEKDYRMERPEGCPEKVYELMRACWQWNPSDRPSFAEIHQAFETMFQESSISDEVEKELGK
Procedure: The CellTiter-Glo luminescent cell viability assay is a homogeneous method of determining the number of viable cells in culture based on quantification of the ATP present. Briefly, IL-3 dependent Ba/F3 cells are modified to express BCR-ABL. Activity of the transformed kinase overrides IL-3 dependency for cellular proliferation and survival. […] In this assay Ba/F3 cells expressing BCR-ABL (Advanced Cellular Dynamics) or parental Ba/F3 (control) cells were prepared at 5×10^4/mL in RPMI 1640 containing 10% FBS, 1×Glutamax and 750 ng/mL puromycin. Test compounds were dispensed into 384 well plates using the Tecan D300e at a top final assay concentration of 10 μM with dosing normalised to 0.1% DMSO in […]. 50 μL cells were added to each well of the prepared 384 well plates and the plates spun at 1000 rpm for 1 min prior to incubation at 37° C., 5% CO2 for 48 h. After 48 h 15 μL CellTiter-Glo reagent was added to each well in the plate. Following a 60 min incubation at rt luminescence was read on the Pherastar FS reader.

[2] = Human microsomal stability; assay type: in vitro ADME; conditions: human microsomes, first value of cell; NADPH, 37° C., up to 40 min
Procedure: as §1

BCRP = target: T2, BCRP (Homo sapiens, UniProt Q9UNQ0); test: BCRP-MDCK effective efflux ratio; assay type: in vitro ADME; conditions: BCRP-MDCK relative to wild-type MDCK, 1 μM, 60 minutes, pH 7.4
T2 construct: expressed in transfected cells; host or cells: MDCK (canine kidney) cells
T2 sequence (Q9UNQ0 1-655): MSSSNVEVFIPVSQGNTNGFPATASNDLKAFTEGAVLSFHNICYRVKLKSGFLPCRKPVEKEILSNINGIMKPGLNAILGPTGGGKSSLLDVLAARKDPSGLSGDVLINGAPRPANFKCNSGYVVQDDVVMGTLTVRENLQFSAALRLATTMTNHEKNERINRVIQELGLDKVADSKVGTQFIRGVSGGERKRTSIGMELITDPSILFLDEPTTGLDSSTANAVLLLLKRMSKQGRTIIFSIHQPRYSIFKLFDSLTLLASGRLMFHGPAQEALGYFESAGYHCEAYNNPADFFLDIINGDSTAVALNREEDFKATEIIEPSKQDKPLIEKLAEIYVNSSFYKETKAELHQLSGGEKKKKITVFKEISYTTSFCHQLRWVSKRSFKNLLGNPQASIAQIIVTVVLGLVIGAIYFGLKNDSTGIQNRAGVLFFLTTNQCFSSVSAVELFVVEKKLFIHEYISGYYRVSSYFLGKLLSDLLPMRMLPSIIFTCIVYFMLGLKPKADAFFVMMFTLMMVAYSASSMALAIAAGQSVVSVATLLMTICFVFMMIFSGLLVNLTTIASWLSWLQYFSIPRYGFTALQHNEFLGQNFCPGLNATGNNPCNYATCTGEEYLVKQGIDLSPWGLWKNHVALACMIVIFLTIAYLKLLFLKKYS
Procedure: (§2) Wild-type MDCK, MDR1-MDCK and BCRP-MDCK cells were seeded into 24 well Transwell plates and cultured for 3 days to form monolayers. Test compound were prepared at 1 μM in Hanks' Balanced Salt Solution containing 25 mM HEPES and loaded into the donor compartments of Transwell plates bearing the cell monolayers (pH 7.4 for both donor and receiver compartments). Lucifer Yellow was added to the apical buffer in all wells to assess integrity of the cell monolayer. Duplicate wells were prepared and incubated at 37° C. in a CO2 incubator. Samples were removed at time zero and 60 minutes and test compound analysed by LC-MS/MS. Concentrations of Lucifer Yellow in the samples was measured using a fluorescence plate reader. The apparent permeability (Papp) values of test compound was determined for both the apical to basal (A>B) and basal to apical (B>A) permeation and the efflux ratio (B>A: A>B) determined in each cell line. The effective efflux ratio was determined from the ratio of either MDR1-MDCK cells or BCRP-MDCK cells relative to the ratio observed in wild-type cells. A higher value represent a better substrate for the efflux mechanism, which is less preferable.

MDR1 = target: T3, MDR1 (Homo sapiens, UniProt P08183); test: MDR1-MDCK effective efflux ratio; assay type: in vitro ADME; conditions: MDR1-MDCK relative to wild-type MDCK, 1 μM, 60 minutes, pH 7.4
T3 construct: expressed in transfected cells; host or cells: MDCK (canine kidney) cells
Procedure: as §2

T3 sequence (P08183 whole entry, species assumed): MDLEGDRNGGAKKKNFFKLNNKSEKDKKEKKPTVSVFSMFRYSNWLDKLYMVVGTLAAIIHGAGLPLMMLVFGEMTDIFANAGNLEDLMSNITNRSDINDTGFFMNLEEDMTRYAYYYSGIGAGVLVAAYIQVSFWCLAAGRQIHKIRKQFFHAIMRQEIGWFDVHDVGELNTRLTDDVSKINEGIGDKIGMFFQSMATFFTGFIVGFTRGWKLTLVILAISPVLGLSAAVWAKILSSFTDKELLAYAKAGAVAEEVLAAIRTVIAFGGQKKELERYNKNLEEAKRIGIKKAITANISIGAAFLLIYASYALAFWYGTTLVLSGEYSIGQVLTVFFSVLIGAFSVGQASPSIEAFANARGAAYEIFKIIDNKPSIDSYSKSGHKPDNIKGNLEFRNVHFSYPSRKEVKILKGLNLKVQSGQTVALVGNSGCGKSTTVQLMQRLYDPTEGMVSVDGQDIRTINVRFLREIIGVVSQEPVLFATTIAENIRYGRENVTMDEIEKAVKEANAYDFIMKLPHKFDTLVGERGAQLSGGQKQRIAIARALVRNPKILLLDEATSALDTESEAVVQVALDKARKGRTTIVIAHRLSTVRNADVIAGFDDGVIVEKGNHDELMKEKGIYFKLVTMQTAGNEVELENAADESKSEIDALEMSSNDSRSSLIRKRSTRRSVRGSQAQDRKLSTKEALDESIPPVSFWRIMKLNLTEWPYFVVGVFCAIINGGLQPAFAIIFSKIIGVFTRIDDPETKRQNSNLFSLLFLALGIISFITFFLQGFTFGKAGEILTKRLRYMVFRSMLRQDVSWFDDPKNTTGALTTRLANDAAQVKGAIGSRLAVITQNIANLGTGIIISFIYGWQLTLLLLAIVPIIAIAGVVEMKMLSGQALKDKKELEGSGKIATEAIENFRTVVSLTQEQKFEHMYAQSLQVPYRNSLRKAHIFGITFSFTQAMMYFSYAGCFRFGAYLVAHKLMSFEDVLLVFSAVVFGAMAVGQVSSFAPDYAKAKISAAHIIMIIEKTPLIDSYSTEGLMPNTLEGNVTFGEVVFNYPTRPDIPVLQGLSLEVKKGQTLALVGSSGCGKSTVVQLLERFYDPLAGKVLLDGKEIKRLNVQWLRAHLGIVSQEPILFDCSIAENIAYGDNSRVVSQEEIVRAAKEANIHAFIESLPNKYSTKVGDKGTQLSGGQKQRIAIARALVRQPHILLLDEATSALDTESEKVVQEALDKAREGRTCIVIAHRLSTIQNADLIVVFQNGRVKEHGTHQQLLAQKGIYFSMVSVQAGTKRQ

Microsomal stability (human/rat) Eh (Rat microsomal stability): 0.69
IC50 [1]: 0.022 µM
Microsomal stability (human/rat) Eh [2]: 0.70
MDCK BCRP EER (BCRP): 1.5
MDCK MDR1 EER (MDR1): 1
Structure (SMILES): Cc1ccc(C(=O)Nc2cc(C(F)(F)F)ccn2)cc1-n1cc(-c2cccnc2)cn1 [Example 1, 4-Methyl-3-[4-(3-pyridyl)pyrazol-1-yl]-N-[4-(trifluoromethyl)-2-pyridyl]benzamide]
